# Data taken from patent US20080108611A1, “SUBSTITUTED THIENOPYRIMIDINE KINASE INHIBITORS” (priority 2006, published 2008).
# Tests used:
# [1] = system: A375 malignant melanoma; assay: Cell Proliferation Inhibition Assay (14C-thymidine incorporation), A375; type: cell-based; conditions: Homo sapiens, A-375; A375 cells
# Protocol: (§1) The ability of a test compound to inhibit unregulated cell proliferation was determined by measuring incorporation of ^14C-labelled thymidine into newly synthesized DNA within cell lines derived from carcinomas originating from several tissues. Accordingly, the anti-proliferative effect of a compound on cells with a variety of phenotypes may be determined.
# (§2) Carcinoma cell lines include those such as HeLa cervical adenocarcinoma (American Type Culture Collection (ATCC), Virginia, Cat. #CCL-2), A375 malignant melanoma (ATCC CRL-1619), SK-OV-3 ovarian adenocarcinoma (ATCC HTB-77), HCT-116 colon carcinoma (CCL-247), PC-3 prostate adenocarcinoma (ATCC CRL-1435), and MDA-MB-231 (Xenogen Corp.)
# (§3) The carcinoma cells were trypsinized and counted. The cells (3000-8000 count) were added to each well of a 96-well CytoStar tissue culture treated scintillating microplate (Amersham #RPNQ0160) in complete medium (100 μL) and the plate was then incubated in complete medium for 24 hrs at 37° C. in an […] atmosphere containing 5% CO2. Test compound (1 μL) in 100% DMSO was added to the plate test-wells with DMSO only added to control-wells. The plate was incubated in complete medium for a second 24 hr period at 37° C. in an atmosphere containing 5% CO2.
# (§4) An aliquot of a solution of methyl ^14C-thymidine (56 mC/mmol) (NEN #NEC568 or Amersham #CFA532) and complete medium (20 uL to provide 0.2 μCi/well) was then added to each well and the plate was incubated for a third 24 hr period at 37° C. in an atmosphere containing 5% CO2. The plate contents were then discarded, the plate was washed twice with PBS (200 μL) and then PBS (200 μL) was added to each well. The plate was sealed and the degree of methyl ^14C-thymidine incorporation was quantified on a Packard Top Count.
# [2] = system: HCT-116 colon carcinoma; assay: Cell Proliferation Inhibition Assay (14C-thymidine incorporation), HCT116; type: cell-based; conditions: Homo sapiens, HCT116 cells
# Protocol: as §1, §2, §3, §4
# [3] = biological target: T1, VEGF-R2 (Rattus norvegicus, UniProt O08775); assay: VEGF-R2 Screening Assay; type: biochemical; conditions: rat VEGF-R2 kinase domain, 10 μM ATP
# T1 construct: polyhistidine (N)
# Protocol: A kinase reaction mixture was prepared containing 50 mM Tris-HCl at pH 8, 10 mM MgCl2, 0.1 mM Na3PO4, 1 mM DTT, 10 μM ATP, 0.025 μM biotinylated histone-H1 peptide substrate and 0.2 μCuries per well ^33P-γ-ATP (2000-3000 Ci/mmol). 70 μL of the kinase reaction mixture was dispensed into the well of a Streptavidin FlashPlate.
# Test compound stock in 100% DMSO (1 μL) was added to the wells resulting in a final concentration of 1% DMSO in the reaction with a 100 μL final reaction volume. Each enzyme was diluted in 50 mM Tris-HCl pH=8.0, 0.1% BSA and 30 μL was added to each well to initiate the reaction. The reaction was incubated for one hour at 30° C. At the end of the 1 hr incubation, the reaction was terminated by aspirating the mixture from the plate and washing the wells twice with PBS containing 100 mM EDTA. The biotinylated peptide substrate became immobilized on the Flashplate™ and the incorporation of ^33P-γ-ATP was measured by reading the plate on a scintillation counter. Inhibition of the enzymatic activity was measured by observing a reduced amount of ^33P-γ-ATP incorporated into the immobilized peptide.
# The VEGF-R2 enzyme is a fusion protein containing a polyhistidine tag at the N terminus followed by amino acids 786 to 1343 of the rat VEGF-R2 kinase domain (Accession number U93306). The assay used 150 ng of the N-terminal biotinylated peptide biotin-KHKKLAEGSAYEEV-amide (VEGF-R2) per well.
# The IC50 was derived according to the procedure described in Example 1.
# [4] = system: HeLa cervical adenocarcinoma; assay: Cell Proliferation Inhibition Assay (14C-thymidine incorporation), HeLa; type: cell-based; conditions: Homo sapiens; HeLa cells
# Protocol: as §1, §2, §3, §4
# [5] = biological target: T2, EGFR (Homo sapiens, UniProt P00533); assay: EGFR Kinase Assay; type: biochemical; conditions: test concentration of 2 μM (compounds without an IC50); read-out: EGFR percent inhibition
# T2 construct: The intracellular portion of EGFR started at nucleotide 2189 (corresponding to amino acid 667) and ended at the termination codon; made in house; host or cells: Sf9 insect cells (baculovirus)
# Description: The EGFR kinase used was a fusion of Glutathione-S-Transferase (GST) and a PCR amplified intracellular portion of EGFR (NM_005228). The intracellular portion of EGFR started at nucleotide 2189 (corresponding to amino acid 667) and ended at the termination codon. The portion was PCR amplified with primers that added the lambda attB sequences to each end, recombined into an entry vector, then into a GST destination vector (as described in Gateway Technologies Manual by Invitrogen Corporation, Carlsbad, Calif.).
# The destination vector was recombined in the DH10BAC strain of bacteria to produce a bacmid. The bacmid was transfected into Sf 9 cells and the supernatant containing the baculovirus was collected. The GSTEGFR protein was purified using large cultures of Sf 9 cells infected with stock virus. After an appropriate period of time, the cells were collected and lysed. The GSTEGFR was then purified from the lysate on Glutathione-Sepharose columns (as described by Amersham Biosciences, Buckinghamshire, United Kingdom).
# The EGFR substrate was prepared by biotinylating polyGluTyr (128 mg) (Sigma, St. Louis, Mo.) in a 1×PBS buffer incubated together with a 12-fold molar excess of Sulfo-NHS-LC-Biotin on ice for at least 2 hrs. The free biotin was separated from the biotinylated polyGluTyr on a gel filtration column.
# A mixture of a 10× kinase buffer (500 mM Tris at pH 8.0, 100 mM Magnesium Chloride and 1 mM Sodium Vanadate), DTT (1 mM final from 500 mM stock), ATP (5 μM final from 10 mM stock), biotinylated polyGluTyr (10 μg/μL stock), γ-^33P ATP (10 μCi/μL stock) and water was added to each well (90 μL/well) of a Streptavidin Flashplate (Perkin Elmer, Wellesley, M A).
# Test compound in 100% DMSO (2 μL) was added to the appropriate wells. Diluted GSTEGFR (1:300 dilution in 50 mM Tris at pH 8.0 and 0.1% bovine serum albumin) (10 μL) was added to the wells to initiate the reactions.
# The plates were incubated at 30° C. for 1 hr with shaking. The reacted contents were removed and the plates were sequentially washed three times with a 1×PBS stop buffer (300 μL without Magnesium and Calcium) and 100 mM EDTA. After the final wash, the same stop buffer (200 μL) was added to the wells. The plates were then sealed and read on the TopCount scintillation counter.
# Test compounds were assayed in triplicate at 16 concentrations at half-log dilutions starting at 200 uM. A maximum and minimum signal for the assay was determined on each plate. The percent inhibition of a test compound was calculated according to the formula
# For a series of test concentrations, the IC50 was derived by graphing percent inhibition against the log of the concentrations tested for a given compound. For those compounds without an IC50, the percent inhibition results are shown at a test concentration of 2 μM.
# T1 sequence (O08775 786-1343): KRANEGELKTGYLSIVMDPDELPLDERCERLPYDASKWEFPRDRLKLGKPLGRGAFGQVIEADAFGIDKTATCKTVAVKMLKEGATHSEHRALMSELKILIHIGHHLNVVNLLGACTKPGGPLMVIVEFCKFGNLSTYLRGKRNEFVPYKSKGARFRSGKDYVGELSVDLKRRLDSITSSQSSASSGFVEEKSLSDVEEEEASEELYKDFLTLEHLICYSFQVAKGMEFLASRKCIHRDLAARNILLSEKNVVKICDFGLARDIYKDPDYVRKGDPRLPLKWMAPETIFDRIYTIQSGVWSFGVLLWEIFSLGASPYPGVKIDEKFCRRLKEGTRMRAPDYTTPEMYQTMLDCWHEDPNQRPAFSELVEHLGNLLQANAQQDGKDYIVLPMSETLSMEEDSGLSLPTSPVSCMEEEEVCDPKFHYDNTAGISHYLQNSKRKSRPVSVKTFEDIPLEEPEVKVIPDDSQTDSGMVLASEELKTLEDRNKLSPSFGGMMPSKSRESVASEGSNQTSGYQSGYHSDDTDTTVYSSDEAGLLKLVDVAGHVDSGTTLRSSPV
# T2 sequence (P00533 669-1210 limits assumed): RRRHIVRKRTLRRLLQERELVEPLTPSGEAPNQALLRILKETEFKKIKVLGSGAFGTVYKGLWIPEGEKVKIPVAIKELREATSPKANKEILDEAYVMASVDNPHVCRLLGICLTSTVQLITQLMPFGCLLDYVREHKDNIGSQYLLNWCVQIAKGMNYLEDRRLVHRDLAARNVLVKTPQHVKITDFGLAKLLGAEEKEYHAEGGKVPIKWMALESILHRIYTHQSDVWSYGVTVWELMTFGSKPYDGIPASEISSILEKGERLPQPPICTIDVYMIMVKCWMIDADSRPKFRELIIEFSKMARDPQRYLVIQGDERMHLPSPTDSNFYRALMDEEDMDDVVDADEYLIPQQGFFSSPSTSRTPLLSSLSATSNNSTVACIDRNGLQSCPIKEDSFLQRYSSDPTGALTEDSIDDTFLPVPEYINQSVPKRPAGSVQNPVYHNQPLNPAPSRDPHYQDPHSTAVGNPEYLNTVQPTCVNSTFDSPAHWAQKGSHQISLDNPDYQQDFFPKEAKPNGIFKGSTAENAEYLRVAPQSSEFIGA
Compound,IC50 [1] [µM],IC50 [2] [µM],IC50 [3] [µM],IC50 [4] [µM],inhibition at 2 µM [5] [%]
"Cc1c(C(=O)Nc2ccc(CN3CCOCC3)cc2)sc2ncnc(Nc3ccc(Oc4ccccc4)cc3)c12 [Cpd 23, 5-methyl-4-(4-phenoxy-phenylamino)-thieno[2,3-d]pyrimidine-6-carboxylic acid (4-morpholin-4-ylmethyl-phenyl)-amide]",2.9,7.1,> 100,> 10,–
"Cc1cc2c(F)c(Oc3ncnc4sc(C(=O)NCCN5CCCC5)c(C)c34)ccc2[nH]1 [Cpd 22, 4-(4-fluoro-2-methyl-1H-indol-5-yloxy)-5-methyl-thieno[2,3-d]pyrimidine-6-carboxylic acid (2-pyrrolidin-1-yl-ethyl)-amide]",2.2,22.3,0.619,15.2,–
Cc1c(C(=O)NCCN2CCOCC2)sc2ncnc(Nc3ccc(Oc4ccccc4)cc3)c12 [Cpd 24],> 10,> 10,~100,> 100,–
"Cc1cc2c(F)c(Oc3ncnc4sc(C(=O)Nc5ccc(CN6CCOCC6)cc5)c(C)c34)ccc2[nH]1 [Cpd 20, 4-(4-fluoro-2-methyl-1H-indol-5-yloxy)-5-methyl-thieno[2,3-d]pyrimidine-6-carboxylic acid (4-morpholin-4-ylmethyl-phenyl)-amide]",> 10,> 10,0.761,> 10,–
"Cc1cc2c(F)c(Oc3ncnc4sc(C(=O)NCCN5CCCCC5)c(C)c34)ccc2[nH]1 [Cpd 21, 4-(4-fluoro-2-methyl-1H-indol-5-yloxy)-5-methyl-thieno[2,3-d]pyrimidine-6-carboxylic acid (2-piperidin-1-yl-ethyl)-amide]",1.5,9.4,0.393,8.5,–
"Cc1cc2c(F)c(Oc3ncnc4sc(C(=O)NCCN5CCOCC5)c(C)c34)ccc2[nH]1 [Cpd 19, 4-(4-fluoro-2-methyl-1H-indol-5-yloxy)-5-methyl-thieno[2,3-d]pyrimidine-6-carboxylic acid (2-morpholin-4-yl-ethyl)-amide]",> 10,> 10,0.248,> 10,10
"COCCNC(=O)c1sc2ncnc(Oc3ccc4[nH]c(C)cc4c3F)c2c1C [Cpd 27, 4-(4-fluoro-2-methyl-1H-indol-5-yloxy)-5-methyl-thieno[2,3-d]pyrimidine-6-carboxylic acid (2-methoxy-ethyl)-amide]",> 10,> 10,0.378,> 10,–
